According to patent US6849598B1, “Therapeutic compositions comprising bactericidal/permeability-increasing (BPI) protein products” (XOMA, priority 1995, dated 2005):
Values after ≈ are worked out from the molar mass of the structure shown. Where two headings read alike, the source gives them in different places. Each block holds one molecule with its values, some of them ahead of it.

How the values were obtained:
A. baumannii = assay: Antibiotic susceptibility (MIC, Sensititre Trays) with rBPI21 poloxamer formulations; format: cell-based; conditions: for MIC: Acinetobacter baumannii, read-out: Minimum Inhibitory Concentration
Procedure: (§1) The effect of therapeutic compositions of rBPI21 formulated with poloxamer, with or without EDTA, was evaluated on the antibiotic susceptibility of the multiple drug resistant A. baumannii, S. pneumoniae, E. faecium and P. aeruginosa organisms of Example 5. Therapeutic compositions were prepared containing 2 mg/mL rBPI21, (5 mM sodium citrate, 150 mM NaCl) with a 0.2% (w/v) concentration of PLURONIC F68, P103, P104, P105 or P123. The effect on the antibiotic susceptibility of the organisms was determined in Mueller-Hinton Broth plus Cations (CSMHB, Remel), or 40% pooled human serum in CSMHB (Sigma, St. Louis, Mo.), as follows.
(§2) Isolated colonies of the organism from overnight cultures were suspended in Microscan® Inoculum Water to a concentration equivalent to a 0.5 McFarland Standard (approximately 1×10^8 CFU/ml), determined using a Microscan® turbidimeter. Aliquots were transferred to either CSMHB or 40% pooled human serum in CSMHB. Each tube contained either a final concentration of 16 μg/mL rBPI21 or an equivalent volume of control buffer. Minimal inhibitory concentrations (MIC) for each antibiotic tested, i.e. the lowest concentration of antibiotic which inhibits visible growth, were determined using gram-negative (MB and MC) and gram-positive (MA) Sensititre Trays (Radiometer America, Westlake, Ohio), which allow for the rapid and simultaneous survey of a broad spectrum of standard antibiotics. Any other antimicrobial panel systems known in the art, such as the Microscan® (Dade Microscan, Sacramento, Calif.), Pasco (DIFCO, Detroit, Mich.) and Alamar (Alamar, Sacramento, Calif.) systems, may alternatively be used to assay for antibiotic susceptibility.
(§3) Tables 12-15 below display a summary of the results of the antibiotic screening panels, reported for each strain tested as the MIC of the tested antibiotics in the presence of the indicated rBPI21 therapeutic composition. The antibiotic susceptibility standards (interpretation of an MIC as clinically resistant (R), intermediate (I) or susceptible (S) according to NCCLS standards) applicable to the organism tested appear in superscript next to the MIC.

P. aeruginosa = assay: as above; format: cell-based; conditions: for MIC: Pseudomonas aeruginosa, read-out: Minimum Inhibitory Concentration
Procedure: as §1, §2, §3

[1] = CSMHB, 16 μg/mL rBPI21 with F68
[2] = CSMHB, 16 μg/mL rBPI21 with P103
[3] = CSMHB, 16 μg/mL rBPI21 with P104
[4] = CSMHB, 16 μg/mL rBPI21 with P105
[5] = CSMHB, 16 μg/mL rBPI21 with P123
[6] = Serum, 16 μg/mL rBPI21 with F68
[7] = Serum, 16 μg/mL rBPI21 with P103
[8] = Serum, 16 μg/mL rBPI21 with P104
[9] = Serum, 16 μg/mL rBPI21 with P105
[10] = Serum, 16 μg/mL rBPI21 with P123

MIC (A. baumannii; [1]): > 128 µg/mL | MIC (A. baumannii; [2]): < 1 µg/mL | MIC (A. baumannii; [3]): < 1 µg/mL | MIC (A. baumannii; [4]): < 1 µg/mL | MIC (A. baumannii; [5]): < 1 µg/mL | MIC (A. baumannii; CSMHB, Control (no BPI)): 128 µg/mL (≈ 231 µM) | MIC (A. baumannii; [6]): > 128 µg/mL | MIC (A. baumannii; [7]): > 128 µg/mL | MIC (A. baumannii; [8]): > 128 µg/mL | MIC (A. baumannii; [9]): > 128 µg/mL | MIC (A. baumannii; [10]): > 128 µg/mL | MIC (A. baumannii; Serum, Control (no BPI)): > 128 µg/mL | susceptibility interpretation of MIC (superscript) (A. baumannii; [1]): R | susceptibility interpretation of MIC (superscript) (A. baumannii; [2]): S | susceptibility interpretation of MIC (superscript) (A. baumannii; [3]): S | susceptibility interpretation of MIC (superscript) (A. baumannii; [4]): S | susceptibility interpretation of MIC (superscript) (A. baumannii; [5]): S | susceptibility interpretation of MIC (superscript) (A. baumannii; CSMHB, Control (no BPI)): R | susceptibility interpretation of MIC (superscript) (A. baumannii; [6]): R | susceptibility interpretation of MIC (superscript) (A. baumannii; [7]): R | susceptibility interpretation of MIC (superscript) (A. baumannii; [8]): R | susceptibility interpretation of MIC (superscript) (A. baumannii; [9]): R | susceptibility interpretation of MIC (superscript) (A. baumannii; [10]): R | susceptibility interpretation of MIC (superscript) (A. baumannii; Serum, Control (no BPI)): R | susceptibility interpretation of MIC (superscript) (P. aeruginosa; [1]): I | susceptibility interpretation of MIC (superscript) (P. aeruginosa; [2]): S | susceptibility interpretation of MIC (superscript) (P. aeruginosa; [3]): R | susceptibility interpretation of MIC (superscript) (P. aeruginosa; [4]): I | susceptibility interpretation of MIC (superscript) (P. aeruginosa; [5]): R | susceptibility interpretation of MIC (superscript) (P. aeruginosa; CSMHB, Control (no BPI)): R | MIC (P. aeruginosa; [1]): 32 µg/mL (≈ 57.7 µM) | MIC (P. aeruginosa; [2]): 8 µg/mL (≈ 14.4 µM) | MIC (P. aeruginosa; [3]): 128 µg/mL (≈ 231 µM) | MIC (P. aeruginosa; [4]): 32 µg/mL (≈ 57.7 µM) | MIC (P. aeruginosa; [5]): 128 µg/mL (≈ 231 µM) | MIC (P. aeruginosa; CSMHB, Control (no BPI)): > 128 µg/mL | MIC (P. aeruginosa; [6]): > 128 µg/mL | MIC (P. aeruginosa; [7]): 16 µg/mL (≈ 28.9 µM) | MIC (P. aeruginosa; [8]): 128 µg/mL (≈ 231 µM) | MIC (P. aeruginosa; [9]): 16 µg/mL (≈ 28.9 µM) | MIC (P. aeruginosa; [10]): 32 µg/mL (≈ 57.7 µM) | MIC (P. aeruginosa; Serum, Control (no BPI)): 128 µg/mL (≈ 231 µM) | susceptibility interpretation of MIC (superscript) (P. aeruginosa; [6]): R | susceptibility interpretation of MIC (superscript) (P. aeruginosa; [7]): I | susceptibility interpretation of MIC (superscript) (P. aeruginosa; [8]): R | susceptibility interpretation of MIC (superscript) (P. aeruginosa; [9]): I | susceptibility interpretation of MIC (superscript) (P. aeruginosa; [10]): I | susceptibility interpretation of MIC (superscript) (P. aeruginosa; Serum, Control (no BPI)): R
SMILES: CO/N=C(\C(=O)N[C@@H]1C(=O)N2C(C(=O)O)=C(CSc3nc(=O)c(=O)[nH]n3C)CS[C@H]12)c1csc(N)n1 [Ceftriaxone]

MIC (A. baumannii; [1]): 32 µg/mL (≈ 58.5 µM) | MIC (A. baumannii; [2]): < 4 µg/mL | MIC (A. baumannii; [3]): < 4 µg/mL | MIC (A. baumannii; [4]): < 4 µg/mL | MIC (A. baumannii; [5]): < 4 µg/mL | MIC (A. baumannii; CSMHB, Control (no BPI)): 16 µg/mL (≈ 29.3 µM) | MIC (A. baumannii; [6]): 32 µg/mL (≈ 58.5 µM) | MIC (A. baumannii; [7]): 16 µg/mL (≈ 29.3 µM) | MIC (A. baumannii; [8]): 16 µg/mL (≈ 29.3 µM) | MIC (A. baumannii; [9]): 16 µg/mL (≈ 29.3 µM) | MIC (A. baumannii; [10]): 16 µg/mL (≈ 29.3 µM) | MIC (A. baumannii; Serum, Control (no BPI)): > 32 µg/mL | susceptibility interpretation of MIC (superscript) (A. baumannii; [1]): R | susceptibility interpretation of MIC (superscript) (A. baumannii; [2]): S | susceptibility interpretation of MIC (superscript) (A. baumannii; [3]): S | susceptibility interpretation of MIC (superscript) (A. baumannii; [4]): S | susceptibility interpretation of MIC (superscript) (A. baumannii; [5]): S | susceptibility interpretation of MIC (superscript) (A. baumannii; CSMHB, Control (no BPI)): I | susceptibility interpretation of MIC (superscript) (A. baumannii; [6]): R | susceptibility interpretation of MIC (superscript) (A. baumannii; [7]): I | susceptibility interpretation of MIC (superscript) (A. baumannii; [8]): I | susceptibility interpretation of MIC (superscript) (A. baumannii; [9]): I | susceptibility interpretation of MIC (superscript) (A. baumannii; [10]): I | susceptibility interpretation of MIC (superscript) (A. baumannii; Serum, Control (no BPI)): R
SMILES: CC(C)(O/N=C(\C(=O)N[C@@H]1C(=O)N2C(C(=O)[O-])=C(C[n+]3ccccc3)CS[C@H]12)c1csc(N)n1)C(=O)O [Ceftazidime]
